Data reported in PMC2917201 (Molecular cell, 2010).

Molecular target: T1, MuSK(cyto) (Rattus norvegicus, UniProt Q62838)
T1 sequence (Q62838 529-868): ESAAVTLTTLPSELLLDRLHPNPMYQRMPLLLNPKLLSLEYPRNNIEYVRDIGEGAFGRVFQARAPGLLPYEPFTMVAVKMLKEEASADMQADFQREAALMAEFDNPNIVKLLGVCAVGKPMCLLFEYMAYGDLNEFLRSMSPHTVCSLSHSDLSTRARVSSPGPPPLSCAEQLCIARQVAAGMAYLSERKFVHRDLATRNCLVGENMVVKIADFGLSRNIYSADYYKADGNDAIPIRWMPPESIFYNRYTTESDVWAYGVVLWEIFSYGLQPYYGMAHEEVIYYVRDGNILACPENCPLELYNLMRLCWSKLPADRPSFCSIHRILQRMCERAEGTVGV
Test: autophosphorylation, anti-pTyr754 immunoblot
Format: biochemical
Conditions: 5 mM ATP, 50 mM MgCl2, 25 mM Tris-HCl pH 7.5, 0.5 mM sodium vanadate, 10 mM TCEP, room temperature; MuSK alone, no Dok7

Nc1ncnc2c1ncn2[C@@H]1O[C@H](COP(=O)(O)OP(=O)(O)OP(=O)(O)O)[C@@H](O)[C@H]1O [ATP]
autophosphorylation, anti-pTyr754 immunoblot: With MuSK alone, incubation with Mg-ATP results in a relatively slow rate of autophosphorylation
